# Molecular target: orexin-2 receptor (OX2R) (Homo sapiens (Human), UniProt O43614)
# Assay: radioligand binding assay, membranes from CHO cells expressing OX2
# Conditions: membranes prepared from CHO cells expressing OX2
# Method: The utility of the compounds in accordance with the present invention as orexin receptor OX1R and/or OX2R antagonists may be readily determined without undue experimentation by methodology well known in the art, including the “FLIPR Ca^2+Flux Assay” (Okumura et al., Biochem. Biophys. Res. Comm. 280:976-981, 2001). In a typical experiment the OX1 and OX2 receptor antagonistic activity of the compounds of the present invention was determined in accordance with the following experimental method. For intracellular calcium measurements, Chinese hamster ovary (CHO) cells expressing the rat OX1 receptor or the human OX2 receptor, are grown in Iscove's modified DMEM containing 2 mM L-glutamine, […], 1% hypoxanthine-thymidine supplement, 100 U/ml penicillin, 100 ug/ml streptomycin and 10% heat-inactivated fetal calf serum (FCS). The cells are seeded at 20,000 cells/well into Becton-Dickinson black 384-well clear bottom sterile plates coated with poly-D-lysine. All reagents were from GIBCO-Invitrogen Corp. The seeded plates are incubated overnight at 37° C. and 5% CO2. Ala-6,12 human orexin-A as the agonist is prepared as a 1 mM stock solution in 1% bovine serum albumin (BSA) and diluted in assay buffer (HBSS containing 20 mM HEPES, 0.1% BSA and 2.5 mM probenecid, pH7.4) for use in the assay at a final concentration of 70 pM. Test compounds are prepared as 10 mM stock solution in DMSO, then diluted in 384-well plates, first in DMSO, then assay buffer. On the day of the assay, cells are washed 3 times with 100 ul assay buffer and then incubated for […] (37° C., 5% CO2) in 60 ul assay buffer containing 1 uM Fluo-4AM ester, 0.02% pluronic acid, and 1% BSA. The dye loading solution is then aspirated and cells are washed 3 times with 100 ul assay buffer. 30 ul of that same buffer is left in each well. Within the Fluorescent Imaging Plate Reader (FLIPR, Molecular Devices), test compounds are added to the plate in a volume of 25 ul, incubated for 5 min and finally 25 ul of agonist is added. Fluorescence is measured for each well at 1 second intervals for 5 minutes and the height of each fluorescence peak is compared to the height of the fluorescence peak induced by 70 pM Ala-6,12 orexin-A with buffer in place of antagonist. […] Alternatively, compound potency can be assessed by a radioligand binding assay (described in Bergman et. al. Bioorg. Med. Chem. Lett. 2008, 18, 1425-1430) in which the inhibition constant (Ki) is determined in membranes prepared from CHO cells expressing either the orexin-1 (OX1) or orexin-2 (OX2) receptor. The intrinsic orexin receptor antagonist activity of a compound which may be used in the present invention may be determined by these assays.
# orexin-2 receptor (OX2R), sequence (O43614 whole entry): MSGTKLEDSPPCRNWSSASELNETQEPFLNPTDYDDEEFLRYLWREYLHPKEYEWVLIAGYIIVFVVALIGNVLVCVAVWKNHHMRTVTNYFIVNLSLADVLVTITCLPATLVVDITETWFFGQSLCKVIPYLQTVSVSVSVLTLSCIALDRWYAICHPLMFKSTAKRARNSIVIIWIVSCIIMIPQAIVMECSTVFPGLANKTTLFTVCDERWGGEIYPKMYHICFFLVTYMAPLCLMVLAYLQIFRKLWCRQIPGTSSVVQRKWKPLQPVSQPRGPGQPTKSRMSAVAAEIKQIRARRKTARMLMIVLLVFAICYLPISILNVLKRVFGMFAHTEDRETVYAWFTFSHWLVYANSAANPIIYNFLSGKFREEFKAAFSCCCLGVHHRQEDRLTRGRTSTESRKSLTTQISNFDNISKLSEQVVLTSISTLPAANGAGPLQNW
row,Ki [nM],Compound
1,18.3,"C[C@@H]1CC[C@@H](Oc2cccc3ocnc23)CN1C(=O)c1ccccc1-n1nccn1 (mixture of isomers) [1-1, (2R,5R)- and (2S,5S)-4-({6-methyl-1-[2-(2H-1,2,3-triazol-2-yl)benzoyl]piperidin-3-yl}oxy)-l,3-benzoxazole]"
2,0.56,"Cc1ccc(-n2nccn2)c(C(=O)N2C[C@H](Nc3nccc4ccccc34)CC[C@H]2C)c1 [H-4, N-{(2R,5R)-6-methyl-1-[5-methyl-2-(2H-1,2,3-triazol-2-yl)benzoyl]piperidin-3-yl}isoquinolin-1-amine]"
3,0.11,"C[C@@H]1CC[C@@H](Oc2nccc3ccccc23)CN1C(=O)c1ccccc1-n1nccn1 [F-2, 1-({(2R,5R)-6-methyl-1-[2-(2H-1,2,3-triazol-2-yl)benzoyl]piperidin-3-yl}oxy)-isoquinoline]"
4,0.55,C[C@@H]1CC[C@@H](Oc2ccnc3c(F)cccc23)CN1C(=O)c1ccccc1-n1nccn1 [E-2]
